Assay results reported in ChEMBL document CHEMBL1201862, “PubChem BioAssay data set” (2004).
Where “and” joins values, the source holds several entries; their conditions need not be identical. Identical values can stand only once.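 Cultured in 96-well plates, cells were exposed to test compound for 48 hours across five concentrations. GI50 is the concentration that inhibits growth by half.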 Calls of active or inactive are those of the source. No stated cut-off is given here; in the data, active = GI50 up to about 1.1 µM and inactive = higher.

Tests used:
Test in all cases: DTP human tumour cell line panel, 48 h
MOLT-4 = test system: MOLT-4
CCRF-CEM = test system: CCRF-CEM
IGROV-1 = test system: IGROV-1
K562 = test system: K562
SN12C = test system: SN12C
HOP-92 = test system: HOP-92
UACC-62 = test system: UACC-62
OVCAR-5 = test system: OVCAR-5
HCT-15 = test system: HCT-15
M14 = test system: M14
SF-295 = test system: SF-295
BT-549 = test system: BT-549
MCF7 = test system: MCF7
COLO 205 = test system: COLO 205
RPMI-8226 = test system: RPMI-8226
RXF 393 = test system: RXF 393
T47D = test system: T47D
SF-539 = test system: SF-539
UACC-257 = test system: UACC-257
PC-3 = test system: PC-3
NCI-H460 = test system: NCI-H460
NCI/ADR-RES = test system: NCI/ADR-RES
SW-620 = test system: SW-620
EKVX = test system: EKVX
HL-60 = test system: HL-60
MDA-MB-231 = test system: MDA-MB-231
SK-OV-3 = test system: SK-OV-3
SR = test system: SR
TK-10 = test system: TK-10
SK-MEL-2 = test system: SK-MEL-2
NCI-H23 = test system: NCI-H23
HT-29 = test system: HT-29
SNB-75 = test system: SNB-75
HCT-116 = test system: HCT-116
NCI-H522 = test system: NCI-H522
NCI-H226 = test system: NCI-H226
SK-MEL-5 = test system: SK-MEL-5
HCC 2998 = test system: HCC 2998
KM12 = test system: KM12
A549 = test system: A549
A498 = test system: A498
ACHN = test system: ACHN
MDA-MB-435 = test system: MDA-MB-435
786-0 = test system: 786-0
HOP-62 = test system: HOP-62
OVCAR-8 = test system: OVCAR-8
CAKI-1 = test system: CAKI-1
SK-MEL-28 = test system: SK-MEL-28
Malme-3M = test system: Malme-3M
SNB-19 = test system: SNB-19
MDA-N = test system: MDA-N
UO-31 = test system: UO-31
OVCAR-3 = test system: OVCAR-3
SF-268 = test system: SF-268
DU-145 = test system: DU-145
U-251 = test system: U-251
LOX IMVI = test system: LOX IMVI
OVCAR-4 = test system: OVCAR-4

CC1CCC2(NC1)OC1CC3C4CC=C5CC(O)CCC5(C)C4CCC3(C)C1C2C (centres undefined)
GI50 (MOLT-4): 18.3 µM (inactive) and 18.6 µM (inactive)
GI50 (CCRF-CEM): 12.4 µM (inactive) and 15.2 µM (inactive)
GI50 (IGROV-1): 32.5 µM (inactive) and 35 µM (inactive)
GI50 (K562): 14.9 µM (inactive)
GI50 (SN12C): 15 µM (inactive) and 22.8 µM (inactive)
GI50 (HOP-92): 19.5 µM (inactive) and 17.5 µM (inactive)
GI50 (UACC-62): 27.2 µM (inactive) and 18.1 µM (inactive)
GI50 (OVCAR-5): 39.1 µM (inactive) and 40.3 µM (inactive)
GI50 (HCT-15): 32.5 µM and 38.8 µM
GI50 (M14): 76.6 µM (inactive) and 42.1 µM (inactive)
GI50 (SF-295): 24.9 µM (inactive) and 18.7 µM (inactive)
GI50 (BT-549): 32.8 µM (inactive) and 48.5 µM (inactive)
GI50 (MCF7): 23.2 µM (inactive) and 42.9 µM (inactive)
GI50 (COLO 205): 58.5 µM (inactive) and 40.6 µM (inactive)
GI50 (RPMI-8226): 20.6 µM (inactive) and 10.9 µM (inactive)
GI50 (RXF 393): 25.2 µM (inactive) and 16.8 µM (inactive)
GI50 (T47D): 23.4 µM (inactive) and 17.5 µM (inactive)
GI50 (SF-539): 17.3 µM (inactive) and 10.9 µM (inactive)
GI50 (UACC-257): 55.8 µM (inactive) and 49.1 µM (inactive)
GI50 (PC-3): 22.7 µM (inactive) and 34.9 µM (inactive)
GI50 (NCI-H460): 25.9 µM (inactive) and 14.1 µM (inactive)
GI50 (NCI/ADR-RES): 13.2 µM (inactive) and 14.4 µM (inactive)
GI50 (SW-620): 18.5 µM (inactive) and 27.8 µM (inactive)
GI50 (EKVX): 22.5 µM (inactive) and 37.4 µM (inactive)
GI50 (HL-60): 15.1 µM (inactive) and 11.6 µM (inactive)
GI50 (MDA-MB-231): 12.8 µM (inactive) and 24.9 µM (inactive)
GI50 (SK-OV-3): 24.8 µM (inactive) and 15.7 µM (inactive)
GI50 (SR): 4 µM (inactive) and 2.87 µM (inactive)
GI50 (TK-10): 12.4 µM (inactive) and 20.4 µM (inactive)
GI50 (SK-MEL-2): 29.9 µM (inactive) and 19.5 µM (inactive)
GI50 (NCI-H23): 39.4 µM (inactive) and 37.1 µM (inactive)
GI50 (HT-29): 24.1 µM (inactive) and 12.5 µM (inactive)
GI50 (SNB-75): 4.72 µM (inactive)
GI50 (HCT-116): 18.8 µM (inactive) and 9.86 µM (inactive)
GI50 (NCI-H522): 31.1 µM (inactive) and 22.4 µM (inactive)
GI50 (NCI-H226): 54 µM (inactive) and 27.8 µM (inactive)

S=c1[nH]nc(Cn2c3ccc(Br)cc3c3nc4ccccc4nc32)o1
GI50 (SK-MEL-5): 31.6 µM (inactive)
GI50 (MOLT-4): 27.1 µM (inactive)
GI50 (CCRF-CEM): 24.7 µM (inactive)
GI50 (HCC 2998): 38.8 µM (inactive)
GI50 (IGROV-1): 31.9 µM (inactive)
GI50 (K562): 35.1 µM (inactive)
GI50 (SN12C): 51.9 µM (inactive)
GI50 (UACC-62): 27.5 µM (inactive)
GI50 (KM12): 47.3 µM (inactive)
GI50 (OVCAR-5): > 84.5 µM (inactive)
GI50 (A549): 22.8 µM (inactive)
GI50 (HCT-15): 1.06 µM
GI50 (A498): 43.9 µM (inactive)
GI50 (M14): 4.55 µM (inactive)
GI50 (ACHN): 39.6 µM (inactive)
GI50 (MDA-MB-435): 16.7 µM (inactive)
GI50 (SF-295): 42.9 µM (inactive)
GI50 (BT-549): > 63.2 µM (inactive)
GI50 (MCF7): 39 µM (inactive)
GI50 (COLO 205): 46.9 µM (inactive)
GI50 (RPMI-8226): 4.29 µM (inactive)
GI50 (RXF 393): 14.8 µM (inactive)
GI50 (T47D): 47.3 µM (inactive)
GI50 (SF-539): 30.4 µM (inactive)
GI50 (UACC-257): > 58.6 µM (inactive)
GI50 (PC-3): 4.79 µM (inactive)
GI50 (NCI-H460): 36.9 µM (inactive)
GI50 (NCI/ADR-RES): 74.5 µM (inactive)
GI50 (SW-620): 18.7 µM (inactive)
GI50 (EKVX): 71.6 µM (inactive)
GI50 (786-0): 34.3 µM (inactive)
GI50 (HOP-62): 29.9 µM (inactive)
GI50 (MDA-MB-231): > 45.4 µM (inactive)
GI50 (OVCAR-8): 43.2 µM (inactive)
GI50 (CAKI-1): 41.6 µM (inactive)
GI50 (SK-OV-3): > 78.5 µM (inactive)
GI50 (SR): 568 nM (active)
GI50 (TK-10): 69.5 µM (inactive)
GI50 (SK-MEL-2): 8.67 µM (inactive)
GI50 (SK-MEL-28): 27.3 µM (inactive)
GI50 (NCI-H23): 25.2 µM (inactive)
GI50 (Malme-3M): 42.3 µM (inactive)
GI50 (HT-29): 35.6 µM (inactive)
GI50 (SNB-19): 53 µM (inactive)
GI50 (SNB-75): 86.1 µM (inactive)
GI50 (MDA-N): 41 µM (inactive)
GI50 (HCT-116): 28.3 µM (inactive)
GI50 (UO-31): 16.3 µM (inactive)
GI50 (OVCAR-3): 29.9 µM (inactive)
GI50 (NCI-H522): 20.2 µM (inactive)
GI50 (NCI-H226): > 77.3 µM (inactive)
GI50 (SF-268): > 60.5 µM (inactive)
GI50 (DU-145): 36.6 µM (inactive)
GI50 (U-251): 0.944 µM (active)

CCOC(=O)CCSS(=O)(=O)C(F)(F)F
GI50 (SK-MEL-5): > 100 µM (inactive)
GI50 (CCRF-CEM): > 100 µM (inactive)
GI50 (HCC 2998): > 100 µM (inactive)
GI50 (IGROV-1): > 100 µM (inactive)
GI50 (SN12C): > 100 µM (inactive)
GI50 (HOP-92): > 100 µM (inactive)
GI50 (UACC-62): > 100 µM (inactive)
GI50 (KM12): > 100 µM (inactive)
GI50 (OVCAR-5): > 100 µM (inactive)
GI50 (A549): > 100 µM (inactive)
GI50 (HCT-15): > 100 µM
GI50 (A498): > 100 µM (inactive)
GI50 (M14): > 100 µM (inactive)
GI50 (ACHN): > 100 µM (inactive)
GI50 (MDA-MB-435): > 100 µM (inactive)
GI50 (SF-295): > 100 µM (inactive)
GI50 (BT-549): > 100 µM (inactive)
GI50 (MCF7): > 100 µM (inactive)
GI50 (LOX IMVI): > 100 µM (inactive)
GI50 (COLO 205): > 100 µM (inactive)
GI50 (OVCAR-4): > 100 µM (inactive)
GI50 (RPMI-8226): > 100 µM (inactive)
GI50 (RXF 393): > 100 µM (inactive)
GI50 (T47D): > 100 µM (inactive)
GI50 (UACC-257): > 100 µM (inactive)
GI50 (PC-3): > 100 µM (inactive)
GI50 (NCI-H460): > 100 µM (inactive)
GI50 (NCI/ADR-RES): > 100 µM (inactive)
GI50 (SW-620): > 100 µM (inactive)
GI50 (EKVX): > 100 µM (inactive)
GI50 (786-0): > 100 µM (inactive)
GI50 (HOP-62): > 100 µM (inactive)
GI50 (HL-60): > 100 µM (inactive)
GI50 (OVCAR-8): > 100 µM (inactive)
GI50 (CAKI-1): > 100 µM (inactive)
GI50 (SK-OV-3): > 100 µM (inactive)
GI50 (TK-10): > 100 µM (inactive)
GI50 (SK-MEL-2): > 100 µM (inactive)
GI50 (SK-MEL-28): > 100 µM (inactive)
GI50 (NCI-H23): > 100 µM (inactive)
GI50 (SNB-19): > 100 µM (inactive)
GI50 (SNB-75): > 100 µM (inactive)
GI50 (MDA-N): > 100 µM (inactive)
GI50 (HCT-116): > 100 µM (inactive)
GI50 (UO-31): > 100 µM (inactive)
GI50 (OVCAR-3): > 100 µM (inactive)
GI50 (NCI-H226): > 100 µM (inactive)
GI50 (DU-145): > 100 µM (inactive)
GI50 (U-251): > 100 µM (inactive)
